One assay relates to E. coli ATCC 25922. The assay can be described thus: Inactivation kinetics, E. coli ATCC 25922 viability. It is filed as cell-based. The conditions noted are these: Compound C 31.25 μg/ml, Nerolidol 200 μM. The text has this: The surviving cell numbers (log10) were plotted against time for each treatment. The average slopes were obtained using linear regression analysis and were used to calculate D-values for each treatment using D=−1/slope.

The subject of the next assay is E. coli. Kind of assay: Antimicrobial disc assay against E. coli. It is filed as cell-based. The conditions noted are these: another assay, comparison with traditional antibiotics; results not shown.

For `C=CC(C)(O)CCC=C(C)CCC=C(C)C` (mixture of isomers) [Nerolidol, nerolidol], in the assay with E. coli ATCC 25922 (D=−1/slope of log10 survivors vs time), the “D-value (Decimal log reduction time)” value was 260.80 min. Also, the Surviving cell numbers with E. coli ATCC 25922 (Time 0 min) worked out at 8.83 log10; with E. coli ATCC 25922 (Time 5 min), 8.80 log10; in the assay on E. coli ATCC 25922 (Time 10 min), 8.79 log10; with E. coli ATCC 25922 (Time 15 min) it was 8.79 log10; in the assay with E. coli ATCC 25922 (Time 30 min) it was 8.77 log10.

For gentamicin, the “Impact of sesquiterpenoids on activity against E. coli” value in the assay on E. coli was “no impact”.

On to `CN[C@H](CC(C)C)C(=O)N[C@H]1C(=O)N[C@@H](CC(N)=O)C(=O)N[C@H]2C(=O)N[C@H]3C(=O)N[C@H](C(=O)N[C@H](C(=O)O)c4cc(O)cc(O)c4-c4cc3ccc4O)[C@H](O)c3ccc(c(Cl)c3)Oc3cc2cc(c3O[C@@H]2O[C@H](CO)[C@@H](O)[C@H](O)[C@H]2O[C@H]2C[C@](C)(N)[C@H](O)[C@H](C)O2)Oc2ccc(cc2Cl)[C@H]1O` [vancomycin], for which the “Impact of sesquiterpenoids on activity against E. coli” value in the assay with E. coli was “no impact”.

For the origin of these results see patent US20090081153A1, “COMBINATION OF SYNTHETIC ANTIMICROBIAL POLYMERS AND SESQUITERPENOID COMPOUNDS” (POLYMEDIX, INC., priority 2007, published 2009).
